Reference: patent US12391677B2, “Thyroid hormone receptor agonists” (INVENTISBIO CO., LTD., priority 2018, dated 2025)
pEC50: −log10 of the molar value.

How the values were obtained:
[1] = biological target: ligand binding domain of thyroid hormone receptor beta (Homo sapiens (Human), UniProt P10828); experiment: Thyroid hormone receptor TR-FRET binding assay (TRβ LBD); conditions: TRβ LBD 2 nM
Procedure: (§1) TR-FRET binding assay was used to test representative compounds herein.
(§2) The ligand binding domain of thyroid hormone receptor alpha and the ligand binding domain of thyroid hormone receptor beta with GST tag were purchased from Invitrogen. Biotin-SRC2-2 coactivator peptide was purchased from Sangon Biotech, Europium anti-GST and Streptavidin-D2 was from Cisbio.
(§3) Five microliters of 4× compound serial dilution was added in the 384-well plate, white, low volume, round-bottom assay plate. […] Centrifuge the assay plates at 1000 g for 1 min and incubate 1 hr at RT, protected from light. […] Calculate EC50 by fitting % Activity values and log of compound concentrations to nonlinear regression (dose response—variable slope) with Graphpad 5.0.

[2] = biological target: ligand binding domain of thyroid hormone receptor alpha (Homo sapiens (Human), UniProt P10827); experiment: Thyroid hormone receptor TR-FRET binding assay (TRα LBD); conditions: TRα LBD 4 nM
Sequence of ligand binding domain of thyroid hormone receptor alpha (P10827 other isoform, or with tags, fused parts or gaps del 1-162, other chains not shown): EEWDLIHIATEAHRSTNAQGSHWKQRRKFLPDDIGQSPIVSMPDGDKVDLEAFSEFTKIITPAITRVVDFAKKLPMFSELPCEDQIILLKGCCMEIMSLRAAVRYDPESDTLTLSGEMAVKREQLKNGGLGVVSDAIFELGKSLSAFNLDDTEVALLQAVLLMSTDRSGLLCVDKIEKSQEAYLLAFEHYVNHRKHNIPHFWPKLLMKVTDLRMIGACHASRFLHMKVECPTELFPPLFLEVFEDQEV
Procedure: as §1, §2, §3

Sequence of ligand binding domain of thyroid hormone receptor beta (P10828 217-461): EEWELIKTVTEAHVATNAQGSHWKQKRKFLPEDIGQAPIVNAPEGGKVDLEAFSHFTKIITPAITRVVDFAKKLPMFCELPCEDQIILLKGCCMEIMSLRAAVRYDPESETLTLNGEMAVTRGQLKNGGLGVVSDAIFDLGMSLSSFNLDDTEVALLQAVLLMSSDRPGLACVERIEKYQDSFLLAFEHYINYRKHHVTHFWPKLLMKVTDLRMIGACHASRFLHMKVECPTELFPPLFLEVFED

pEC50 [1]	pEC50 [2]	SMILES
4.05	4.05	N#Cc1nn(-c2cc(Cl)c(Oc3cc(C4CCN(Cc5ccccc5)CC4)c(=O)[nH]n3)c(Cl)c2)c(=O)[nH]c1=O [Compound 77]
< 4.05	< 4.05	N#Cc1nn(-c2cc(Cl)c(Oc3cc(Cc4cccc(O)c4)c(=O)[nH]n3)c(Cl)c2)c(=O)[nH]c1=O [Compound 34]
5.92		N#Cc1nn(-c2cc(Cl)c(Oc3ccc4[nH]cc(C(N)=O)c4c3)c(Cl)c2)c(=O)[nH]c1=O [Compound 87]
< 4.05	< 4.05	CC(=O)N1CCC(c2cc(Oc3c(Cl)cc(-n4nc(C#N)c(=O)[nH]c4=O)cc3Cl)n[nH]c2=O)CC1 [Compound 19]
< 5.00	< 5.00	N#Cc1nn(-c2ccc(Oc3cc(C4CC4)c(=O)[nH]n3)c(Cl)c2)c(=O)[nH]c1=O [Compound 6]
6.18		CC(C)c1c[nH]c2ncc(Oc3c(Cl)cc(-n4nc(C#N)c(=O)[nH]c4=O)cc3Cl)cc12 [Compound 84]
5.98	4.36	Cc1nn(-c2cc(Cl)c(Oc3cc(C(C)C4CCCCC4)c(=O)[nH]n3)c(Cl)c2)c(=O)[nH]c1=O (single isomer, unassigned) [Compound 76]
6.82	4.81	Cc1nn(-c2cc(Cl)c(Oc3cc(C(C)C4CCCCC4)c(=O)[nH]n3)c(Cl)c2)c(=O)[nH]c1=O (stereo not shown) [Compound 61]
6.30		CC(c1ccccc1)c1cc(Oc2c(Cl)cc(-n3nc(C#N)c(=O)[nH]c3=O)cc2C(F)(F)F)n[nH]c1=O (racemic) [Compound 94]
6.11	5.11	Cc1nn(-c2cc(Cl)c(Oc3cc(Cc4cccc(F)c4)c(=O)[nH]n3)c(Cl)c2)c(=O)[nH]c1=O [Compound 68]
6.44		CC(c1ccccc1)c1cc(Oc2c(Cl)cc(-n3nc(C#N)c(=O)[nH]c3=O)cc2Cl)n[nH]c1=O (single isomer, unassigned) [Compound 89]
6.62		CC(c1ccccc1)c1cc(Oc2c(Cl)cc(-n3nc(C#N)c(=O)[nH]c3=O)cc2C(F)(F)F)n[nH]c1=O (single isomer, unassigned) [Compound 95]
5.49		CC(c1ccccc1)c1cc(Oc2c(Cl)cc(-n3nc(C#N)c(=O)[nH]c3=O)cc2Cl)n[nH]c1=O (single isomer, unassigned) [Compound 88]
4.37	4.05	CC(C)c1cc(Oc2c(Cl)cc(CCP(=O)(O)O)cc2Cl)n[nH]c1=O [Compound 70]
5.63	4.05	N#Cc1nn(-c2cc(Cl)c(Sc3cc(Cc4ccccc4)c(=O)[nH]n3)c(Cl)c2)c(=O)[nH]c1=O [Compound 80]
4.93	< 4.05	CC(C)c1cc(Oc2c(Cl)cc(-n3nc(C4CC4)c(=O)[nH]c3=O)cc2Cl)n[nH]c1=O [Compound 36]
5.97	5.07	Cc1nn(-c2cc(Cl)c(Oc3cc(CC4CCC(O)CC4)c(=O)[nH]n3)c(Cl)c2)c(=O)[nH]c1=O (stereo not shown) [Compound 55]
5.06	< 4.05	N#Cc1nn(-c2cc(Cl)c(Oc3cc(CC4CCC(O)CC4)c(=O)[nH]n3)c(Cl)c2)c(=O)[nH]c1=O (stereo not shown) [Compound 50]
5.38	< 5.00	Cc1cc(-n2nc(C#N)c(=O)[nH]c2=O)c(F)c(C)c1Oc1cc(C(C)C)c(=O)[nH]n1 [Compound 45]
6.59		CC(c1cc(Oc2c(Cl)cc(-n3nc(C#N)c(=O)[nH]c3=O)cc2C(F)(F)F)n[nH]c1=O)C1CCCCC1 (racemic) [Compound 97]
< 4.05		Cc1cc(OCP(=O)(O)O)cc(C)c1Cc1cc(C(C)C)c(=O)[nH]n1 [Compound 85]
< 4.05		CC(O)(CO)c1ccc(Cc2cc(Oc3c(Cl)cc(-n4nc(C#N)c(=O)[nH]c4=O)cc3Cl)n[nH]c2=O)cc1 (stereo not shown) [Compound 86]
6.08		CC(c1ccccc1)c1cc(Oc2c(Cl)cc(-n3nc(C#N)c(=O)[nH]c3=O)cc2C(F)(F)F)n[nH]c1=O (single isomer, unassigned) [Compound 96]
5.81		CC(c1cc(Oc2c(Cl)cc(-n3nc(C#N)c(=O)[nH]c3=O)cc2Cl)n[nH]c1=O)C1CCCCC1 (single isomer, unassigned) [Compound 93]
